The values that follow come from US20250339401A1, “METHODS AND MATERIALS FOR TREATMENT OF NEISSERIA GONORRHOEAE INFECTION” (Purdue Research Foundation, priority 2021, published 2025).

≈ marks a conversion by molar mass, not a printed value.

Holding throughout (format): cell-based
Assay [1] concerns Neisseria gonorrhoeae 194. The assay is described as follows: MIC broth microdilution, N. gonorrhoeae 194. As to the method:
(§1) The minimum inhibitory concentrations (MICs) of the tested compounds and control drugs; Azithromycin, Cefixime and Tetracycline (antibiotics) were determined using the broth microdilution method as described in previous reports with minor modifications against clinically-relevant Neisseria gonorrhea strains. Strains were grown on Brucella broth supplemented with yeast extract, neopeptone, hematin, pyridoxal and NAD at 37° C. for 24 hours in presence of 5% CO2. […] Compounds and control drugs were added in the first row of the 96-well plates and serially diluted with media containing bacteria. Plates were then, incubated aerobically at 37° C. in the presence of 5% CO2 for 24 hours.

Assay [2] deals with Neisseria gonorrhoeae 178. The assay is described as follows: MIC broth microdilution, N. gonorrhoeae 178. The procedure: as §1
In general terms: In broth dilution the organism is exposed to a series of concentrations in liquid medium.

Assay [3] has as its system Neisseria gonorrhoeae 169. As to the kind of experiment: MIC broth microdilution, N. gonorrhoeae 169. The procedure:
as §1

Assay [4] concerns Neisseria gonorrhoeae 188. As to the kind of experiment: MIC broth microdilution, N. gonorrhoeae 188. As to the method: as §1
For assay [5], the system named is Neisseria gonorrhoeae 202. As to the kind of experiment: MIC broth microdilution, N. gonorrhoeae 202. As to the method:
as §1

Assay [6] has as its system Neisseria gonorrhoeae 166. The assay is described as follows: MIC broth microdilution, N. gonorrhoeae 166. As to the method: as §1
The subject of assay [7] is Neisseria gonorrhoeae 165. As to the kind of experiment: MIC broth microdilution, N. gonorrhoeae 165. The procedure: as §1
Assay [8] concerns Neisseria gonorrhoeae 170. As to the kind of experiment: MIC broth microdilution, N. gonorrhoeae 170. The procedure:
as §1

Assay [9] concerns Neisseria gonorrhoeae 172. As to the kind of experiment: MIC broth microdilution, N. gonorrhoeae 172. As to the method: as §1
The subject of assay [10] is Neisseria gonorrhoeae 214. As to the kind of experiment: MIC broth microdilution, N. gonorrhoeae 214. The procedure: as §1
The subject of assay [11] is Neisseria gonorrhoeae 171. The assay is described as follows: MIC broth microdilution, N. gonorrhoeae 171. As to the method: as §1
For assay [12], the system named is Neisseria gonorrhoeae 175. As to the kind of experiment: MIC broth microdilution, N. gonorrhoeae 175. The procedure:
as §1

Assay [13] concerns Neisseria gonorrhoeae isolate 191. As to the kind of experiment: MIC broth microdilution, initial screening against N. gonorrhoeae isolate 191. The following applies: 24 hours, 37° C., 5% CO2. The procedure: as §1
For assay [14], the system named is Neisseria gonorrhoeae 167. As to the kind of experiment: MIC broth microdilution, N. gonorrhoeae 167. As to the method:
as §1

For the compound `CC[C@H]1OC(=O)[C@H](C)[C@@H](O[C@H]2C[C@@](C)(OC)[C@@H](O)[C@H](C)O2)[C@H](C)[C@@H](O[C@@H]2O[C@H](C)C[C@H](N(C)C)[C@H]2O)[C@](C)(O)C[C@@H](C)CN(C)[C@H](C)[C@@H](O)[C@]1(C)O` [Azithromycin], the minimal inhibitory concentration (MIC) (in general, the lowest concentration found to suppress growth) in assay [1] stood at 1 µg/mL (≈ 1.34 µM); in assay [2], 1 µg/mL (≈ 1.34 µM); in assay [3], 1 µg/mL (≈ 1.34 µM); in [4] it was 2 µg/mL (≈ 2.67 µM); in assay [5], 32 µg/mL (≈ 42.7 µM); in assay [6], 2 µg/mL (≈ 2.67 µM). The MIC in [7] was 1 µg/mL (≈ 1.34 µM); in [8] it was 1 µg/mL (≈ 1.34 µM); in assay [9], above 128 µg/mL; in assay [10], 0.5 µg/mL (≈ 0.668 µM); in [11], 0.25 µg/mL (≈ 0.334 µM); in assay [12], 16 µg/mL (≈ 21.4 µM). The minimum inhibitory concentration (MIC) in assay [14] amounted to 16 µg/mL (≈ 21.4 µM). In assay [13], the “MIC (Minimum inhibitory concentration)” value was above 128.

With `C=CC1=C(C(=O)O)N2C(=O)[C@@H](NC(=O)/C(=N\OCC(=O)O)c3csc(N)n3)[C@H]2SC1` [Cefixime], the minimal inhibitory concentration (MIC) in assay [1] was found to be 1 µg/mL (≈ 2.21 µM); in [2] it was 0.25 µg/mL (≈ 0.551 µM); in assay [3] it was 0.25 µg/mL (≈ 0.551 µM); in assay [4], 0.25 µg/mL (≈ 0.551 µM); in [5], 0.03 µg/mL (≈ 0.0662 µM); in [6], 0.5 µg/mL (≈ 1.1 µM). Further, the MIC in assay [7] worked out at 0.25 µg/mL (≈ 0.551 µM); in assay [8] it was 0.25 µg/mL (≈ 0.551 µM); in assay [9], 0.06 µg/mL (≈ 0.132 µM); in assay [10] it was 0.25 µg/mL (≈ 0.551 µM); in [11], 0.25 µg/mL (≈ 0.551 µM); in assay [12], 0.03 µg/mL (≈ 0.0662 µM). The same compound registered an MIC in assay [14] of 0.06 µg/mL (≈ 0.132 µM). Further, in assay [13], the “MIC (Minimum inhibitory concentration)” value is 0.06.

As for `CN(C)[C@@H]1C(O)=C(C(N)=O)C(=O)[C@@]2(O)C(O)=C3C(=O)c4c(O)cccc4[C@@](C)(O)[C@H]3C[C@@H]12` [Tetracycline], the MIC in assay [1] turned out to be 1 µg/mL (≈ 2.25 µM); in assay [2] it was 16 µg/mL (≈ 36 µM); in assay [3] it was 4 µg/mL (≈ 9 µM); in assay [4], 2 µg/mL (≈ 4.5 µM); in assay [5] it was 1 µg/mL (≈ 2.25 µM); in [6], 2 µg/mL (≈ 4.5 µM). The MIC stood at 8 µg/mL (≈ 18 µM) in assay [7]; 4 µg/mL (≈ 9 µM) in assay [8]; 1 µg/mL (≈ 2.25 µM) in [9]; 4 µg/mL (≈ 9 µM) in assay [10]; 2 µg/mL (≈ 4.5 µM) in assay [11]; 1 µg/mL (≈ 2.25 µM) in assay [12]. This compound returned a minimum inhibitory concentration (MIC) in [14] of 1 µg/mL (≈ 2.25 µM). The “MIC (Minimum inhibitory concentration)” value in [13] turned out to be 1.
